Results on 22 compounds are retold here after patent publication US11370762B2, “Vinylarene derivative and application” (SHENYANG RESEARCH INSTITUTE OF CHEMICAL INDUSTRY CO., LTD., priority 2017, dated 2022).

Series [1] concerns the target T1, IDO1 enzyme in Hela cells (Homo sapiens, UniProt P14902).
T1 construct: endogenous in cells; host or cells: HeLa cells stimulated with human recombinant IFN-γ
Put plainly: Inhibition of IDO1 enzyme in IFN-γ stimulated Hela cells (kynurenine read at 480 nm). Type of series: cell-based. As to conditions: for inhibition at 0.1 µM: read-out: Inhibition rate (%) 100 nmol; for inhibition at 10 µM: read-out: Inhibition rate (%) 10 μmol; for activity compared with positive control drugs INCB024360 and IN-4 / IC50: Hela cells; for activity compared with positive control drugs INCB024360 and IN-4: IC50 comparison; for IC50: read-out: Inhibition rate IC50 (nmol/L) on IDO1 enzyme activity in Hela cells.

Series [2] deals with colon cancer CT26. Nature of the series: In vivo pharmacodynamics, anti-colon cancer CT26 activity (oral administration, twice a day). Set-up: species or system BALB/c mice. The settings on record: two weeks. The method, then:
Pharmacodynamic of Some Compounds In Vivo (Oral Administration):
The anti-colon cancer CT26 activity of these compounds was tested in vivo. 1×10^6 CT26 cells were inoculated subcutaneously in the right axillary of BALB/c mice by cell suspension inoculation. When the growth of tumors were clearly observed, 56 moderately tumor size animals were selected and randomly divided into test group, solvent control group and positive drug group, with 8 animals in each group. […] The solvent control group was given the same volume of mixed solvents by oral. The above groups were administered twice a day. The weight of the mice and the length and short diameter of the transplanted tumors were measured three times a week during the administration. The tumor volume (VT), relative volume (RVT) and tumor proliferation rate (T/C %) were calculated. After two weeks of administration, nude mice bearing tumors in each experimental group were executed by neck-lifting method. Solid tumour tissues were completely dissected. The weight of tumors in each experimental group was measured and the growth inhibition rate (%) was calculated.

The test system of series [3] is colon cancer CT26. Nature of the series: In vivo pharmacodynamics, anti-colon cancer CT26 activity (intraperitoneal injection, once daily). The settings on record: CT26 in BALB/c mice; for Inhibition rate (%) of tumor weight / Tumor weight: 50 mg/kg daily intraperitoneal injection, two weeks; for activity at the end of the experiment compared with other groups: once daily dosing. The method, then: Pharmacodynamics of Some Compounds In Vivo (Intraperitoneal Injection):
The anti-colon cancer CT26 activity of these compounds was tested in vivo. 1×10^6 CT26 cells were inoculated subcutaneously in the right axillary of BALB/c mice by cell suspension inoculation. When the growth of tumors were clearly observed, 42 moderately tumor size animals were selected and randomly divided into test group, solvent control group and positive drug group, with 6 animals in each group. […] The compound groups were intraperitoneally injected with 50 mg/kg of the compound every day, while the solvent control group was given the same dosage with the same volume of mixed solvent. The weight of the mice and the length and short diameter of the transplanted tumors were measured three times a week during the administration. The tumor volume (VT), relative volume (RVT) and tumor proliferation rate (T/C %) were calculated. After two weeks of administration, nude mice bearing tumors in each experimental group were executed by neck-lifting method. Solid tumour tissues were completely dissected. The weight of tumors in each experimental group was measured and the growth inhibition rate (%) was calculated.

Series [4] can be described thus: Oral pharmacokinetic test of compound 55 in rats. It counts as in vivo. The settings on record: male, Sprague-Dawley, plasma, rat, 30 mg/kg. The method, then: Pharmacokinetic Test and Results of Compound 55:
12 Male Sprague-Dawley rats were grouped random. The final concentration of compound 55 was 1.5 mg/ml. The drug was dissolved in a solvent system of 10% DMSO, 10% hydrogenated castor oil and […] (compounds were dissolved by DMSO, hydrogenated castor oil and saline in turn by vortex or ultrasound), and the drug solution was given orally (30 mg/kg). The rats were fasted overnight but had free access to water, feeding resumed 4 hours after administration. Blood samples (0.3-0.4 mL) were collected into heparinized tubes by Retinal vein plexus at 0, 0.17, 0.33, 0.67, 1, 2, 4, 7, 10 and 24 hours after administration orally. Tubes were anticoagulated with heparin sodium (5% heparin sodium solution filled EP tube, poured out, dried). 100 uL plasma was obtained by centrifugation (10000 rpm, 3 min) and stored at −20° C. before analysis.

Series [5] relates to colon cancer CT26. Nature of the series: In vivo pharmacodynamics, anti-colon cancer CT26 activity (oral administration, twice a day). As to conditions: 50 mg/kg intraperitoneal injection (IP), two weeks. Details: species or system BALB/c mice.
For series [6] the following is noted: literature value, species not stated; cited from earlier work.
Series [7] deals with colon cancer CT26. Put plainly: In vivo pharmacodynamics, anti-colon cancer CT26 activity (intraperitoneal injection, once daily). The settings on record: 300 mg/kg daily by oral, two weeks, CT26 in BALB/c mice.
[8] abbreviates: 100 nmol compound, IFN-γ stimulated Hela cells, 48 hours.
The mark [9] stands for this setting: 10 μmol compound, IFN-γ stimulated Hela cells, 48 hours.

Read-outs that look alike come from different tables or passages of the source.

T1 sequence (P14902 whole entry): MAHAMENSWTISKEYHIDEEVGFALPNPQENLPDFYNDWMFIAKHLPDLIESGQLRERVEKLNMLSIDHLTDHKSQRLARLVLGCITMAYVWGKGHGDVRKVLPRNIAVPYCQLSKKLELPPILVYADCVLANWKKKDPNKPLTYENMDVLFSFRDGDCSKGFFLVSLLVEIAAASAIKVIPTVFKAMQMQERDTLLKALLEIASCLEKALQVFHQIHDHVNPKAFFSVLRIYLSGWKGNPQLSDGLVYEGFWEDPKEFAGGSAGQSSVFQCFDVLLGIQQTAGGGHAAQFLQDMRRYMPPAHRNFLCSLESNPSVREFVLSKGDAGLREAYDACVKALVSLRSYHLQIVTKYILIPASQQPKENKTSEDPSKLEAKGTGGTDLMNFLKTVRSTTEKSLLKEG

`CCCCN(CCCC)c1ccc(/C(C)=C/C(=O)O)cc1NC(=O)Nc1ccc(Cl)c(C(F)(F)F)c1` [Compound 1030]: the inhibition (commonly the drop in the measured response relative to a control, in per cent) at 0.1 µM in series [1] (setting [8]) was found to be 23.8%. In series [1] (setting [9]), the inhibition at 10 µM came out at 100%.
For `CCCCN(CCCC)c1ccc(/C(C)=C\C(=O)O)cc1NC(=O)Nc1ccc(C)cc1F` [Compound 14], the inhibition at 0.1 µM in series [1] (setting [8]) was found to be 100%. In addition, in series [1] (setting [9]), the inhibition at 10 µM was 100%. Further, in series [1], the “activity compared with positive control drugs INCB024360 and IN-4” value is “can reach or exceed those of the positive control drugs INCB024360 and IN-4”; the IC50 worked out at 0.18 nmol/L. In addition, in the series on colon cancer CT26 [2] (50 mg/kg oral), the “Inhibition rate (%) of tumor weight” value amounted to 37.39% and the “Tumor weight” value came out at 793.38 ± 246.34 mg. Besides, in the series with colon cancer CT26 [3], the “Inhibition rate (%) of tumor weight” value was 19.02% and the “Tumor weight” value is 2727.33 ± 404.42 mg.
Consider `C/C(=C/C(=O)O)c1ccc(N(CC(C)C)CC(C)C)c(NC(=O)Nc2ccc(C)cc2F)c1` [Compound 56], for which, in series [1], the “activity compared with positive control drugs INCB024360 and IN-4” value was “can reach or exceed those of the positive control drugs INCB024360 and IN-4”; the IC50 came out at 0.13 nmol/L.
For `CCCCN(CCCC)c1ccc(/C(C)=C/C(=O)O)cc1NC(=S)Nc1ccccc1` [Compound 1031], in series [1] (setting [8]), the inhibition at 0.1 µM was found to be 29.6%. The inhibition at 10 µM in series [1] (setting [9]) was determined as 72.7%.
Turning to `C/C(=C/C(=O)O)c1ccc(N(CC(C)C)CC(C)C)c(NC(=O)Nc2ccc(F)cc2F)c1` [Compound 55, (Z)-3-(3-(3-(2,4-difluorophenyl)ureido)-4-(diisobutylamino)phenyl)but-2-enoic acid], in series [1], the “activity compared with positive control drugs INCB024360 and IN-4” value was “can reach or exceed those of the positive control drugs INCB024360 and IN-4”; the IC50 came to 0.09 nmol/L. Besides, in series [4], the AUC (in general, concentration integrated over time) is 43700 ng·h/mL; the Cmax (as a rule, the highest concentration seen after dosing) worked out at 16800 ng/mL; the half-life (as a rule, the time in which the quantity being followed falls by half) was 5 h. In the series on colon cancer CT26 [2] (20 mg/kg oral (low dose)), the “Inhibition rate (%) of tumor weight” value was 12.42% and the “Tumor weight” value is listed as 1109.75 ± 191.47 mg. For the same compound, in the series on colon cancer CT26 [2] (50 mg/kg oral), the “Inhibition rate (%) of tumor weight” value is listed as 27.06% and the “Tumor weight” value came to 924.25 ± 150.35 mg. In addition, in the series on colon cancer CT26 [2] (100 mg/kg oral (high dose)), the “Inhibition rate (%) of tumor weight” value was 33.16% and the “Tumor weight” value was 847.00 ± 305.01 mg. Moreover, in the series on colon cancer CT26 [3], the “Inhibition rate (%) of tumor weight” value turned out to be 37.02%, the “Tumor weight” value was 2121.17 ± 343.15 mg and the “activity at the end of the experiment compared with other groups” value is recorded as “equivalent to that of 1-MT”. In the series on colon cancer CT26 [5], the “Inhibition rate (%) of tumor weight” value is recorded as 34.97% and the “Tumor weight” value is 824.00 ± 161.64 mg.
As for `CCCCN(CCCC)c1ccc(/C(C)=C/C(=O)OCC)cc1NC(=O)Nc1ccccc1Cl` [Compound 1021], the inhibition at 0.1 µM in series [1] (setting [8]) turned out to be 42.1%. For the same compound, the inhibition at 10 µM in series [1] (setting [9]) is 100%.
`CCCCN(CCCC)c1ccc(/C(C)=C/C(=O)O)cc1NC(=O)Nc1ccc(C)cc1F` [Compound 530]: in series [1], the IC50 was 8.26 nmol/L.
On to `CCCCN(CCCC)c1ccc(/C(C)=C/C(=O)OCC)cc1NC(=O)Nc1ccc(Cl)c(C(F)(F)F)c1` [Compound 1024], for which the inhibition at 0.1 µM in series [1] (setting [8]) is 29.5%. Besides, the inhibition at 10 µM in series [1] (setting [9]) was 58.2%.
Turning to `CCCCN(CCCC)c1ccc(/C(C)=C/C(=O)OCC)cc1NC(=O)Nc1ccc(Cl)cc1` [Compound 1023], in series [1] (setting [8]), the inhibition at 0.1 µM is 35.1%. Further, the inhibition at 10 µM in series [1] (setting [9]) worked out at 100%.
`C/C(=C/C(=O)O)c1ccc(N(CC(C)C)CC(C)C)c(NC(=O)Nc2ccc(C)cc2)c1` [Compound 51]: in series [1], the “activity compared with positive control drugs INCB024360 and IN-4” value was “can reach or exceed those of the positive control drugs INCB024360 and IN-4”; the IC50 came out at 3.69 nmol/L.
With `NS(=O)(=O)NCCNc1nonc1C(=NO)Nc1ccc(F)c(Br)c1` [INCB024360, reference compound], the “T1/2 reported in the literature” value in series [6] is 2.3 h. Further, in the series with colon cancer CT26 [2] (50 mg/kg oral), the “Inhibition rate (%) of tumor weight” value is listed as 33.66% and the “Tumor weight” value amounted to 840.63 ± 144.34 mg. In addition, in the series with colon cancer CT26 [3], the “Inhibition rate (%) of tumor weight” value is reported as 10.23% and the “Tumor weight” value stood at 3026.17 ± 409.75 mg.
`CCCCN(CCCC)c1ccc(/C(C)=C/C(=O)O)cc1NC(=O)Nc1cccc(Cl)c1` [Compound 1028]: in series [1] (setting [8]), the inhibition at 0.1 µM was 41.5%. Besides, the inhibition at 10 µM in series [1] (setting [9]) amounted to 100%.
On the same counts, the results for `CCCCN(CCCC)c1ccc(/C(C)=C/C(=O)OCC)cc1NC(=O)Nc1cccc(Cl)c1` [Compound 1022] are 21.2% and 53.7%.
Take `CCCCN(CCCC)c1ccc(/C(C)=C/C(=O)OCC)cc1NC(=S)Nc1ccccc1` [Compound 1025]: in series [1] (setting [8]), the inhibition at 0.1 µM stood at 24.6%. In addition, the inhibition at 10 µM in series [1] (setting [9]) worked out at 68.8%.
On the same counts, the results for `CCCCN(CCCC)c1ccc(/C(C)=C/C(=O)OCC)cc1NC(=O)Cc1ccccc1F` [Compound 772] are 74.2% and 100%.
The corresponding values for `CCOC(=O)/C=C(\C)c1ccc(N(CC(C)C)CC(C)C)c(NC(=O)Nc2ccc(F)cc2F)c1` [Compound 564, ethyl (E)-3-(3-(3-(2,4-difluorophenyl)ureido)-4-(diisobutylamino)phenyl) but-2-enoate] are 72.2% and 100%.
As for `CCCCN(CCCC)c1ccc(/C(C)=C/C(=O)OCC)cc1NC(=O)Nc1ccc(C)cc1` [Compound 518, ethyl (E)-3-(4-(dibutylamino)-3-(3-(p-tolyl)ureido)phenyl)but-2-enoate], in series [1] (HeLa, 48 h), the inhibition at 0.1 µM was 76.8% and the inhibition at 10 µM stood at 100%.
Regarding `CCCCN(CCCC)c1ccc(/C(C)=C/C(=O)O)cc1NC(=O)Nc1ccccc1Cl` [Compound 1027], the inhibition at 0.1 µM in series [1] (setting [8]) was found to be 71.1%. Further, the inhibition at 10 µM in series [1] (setting [9]) was determined as 100%.
On the same counts, the results for `CCCCN(CCCC)c1ccc(/C(C)=C/C(=O)O)cc1NC(=O)Cc1ccccc1F` [Compound 779] are 77.1% and 100%.
On to `Cn1cc(C[C@@H](N)C(=O)O)c2ccccc21` [Compound 1-MT, 1-methyl-D-tryptophan], for which, in the series on colon cancer CT26 [7], the “Inhibition rate (%) of tumor weight” value came out at 25.5% and the “Tumor weight” value was 2509.17 ± 352.16 mg. Besides, in the series on colon cancer CT26 [3], the “activity at the end of the experiment compared with other groups” value is reported as “better than that of INCB024360”.
Consider `CCCCN(CCCC)c1ccc(/C(C)=C\C(=O)O)cc1NC(=O)Nc1ccc(F)cc1F` [Compound 13], for which the inhibition at 0.1 µM in series [1] (setting [8]) turned out to be 100%. Moreover, the inhibition at 10 µM in series [1] (setting [9]) was found to be 100%. Further, in series [1], the “activity compared with positive control drugs INCB024360 and IN-4” value was “can reach or exceed those of the positive control drugs INCB024360 and IN-4”; the IC50 came out at 3.69 nmol/L.
As to `CCCCN(CCCC)c1ccc(/C(C)=C/C(=O)OCC)cc1NC(=O)Nc1cccc(C)c1` [Compound 1026], the inhibition at 0.1 µM in series [1] (setting [8]) was 21%. Also, the inhibition at 10 µM in series [1] (setting [9]) came to 54.3%.
